Melting point data for nine molecules are collected here from patent publication US7468446B2, “Substituted heterocyclic compounds and uses thereof” (Celgene Corporation, priority 2004, dated 2008).

In general, melting point refers to the temperature, or range, at which the solid turns liquid. The molecule `CCOc1cc(C(=CC#N)c2ccc3cc[nH]c3c2)ccc1OC` (mixture of isomers) [compound 8, (E/Z)-3-(3-Ethoxy-4-methoxy-phenyl)-3-(1H-indol-6-yl)-acrylonitrile] had a melting point of 132 to 134 °C.
On to `CCOc1cc(C(=CC#N)c2ccc3ncccc3c2)ccc1OC` (mixture of isomers) [compound 5, (E/Z) 3-(3-Ethoxy-4-methoxy-phenyl)-3-quinolin-6-yl-acrylonitrile], for which the melting point fell in the range of 114 to 116 °C.
The same measure for `CCOc1cc(C(=CC#N)c2ccc3occc3c2)ccc1OC` (mixture of isomers) [compound 10, (E/Z)-3-Benzofuran-5-yl-3-(3-ethoxy-4-methoxy-phenyl)-acrylonitrile]: 95 to 97 °C; for `COc1cc(OC)cc(C(=CC#N)c2ccc3ncccc3c2)c1` (mixture of isomers) [compound 6, (E/Z) 3-(3,5-Dimethoxy-phenyl)-3-quinolin-6-yl-acrylonitrile]: 142 to 144 °C; for `COc1cc(OC)cc(C(=CC#N)c2ccc3ccn(C)c3c2)c1` (mixture of isomers) [compound 7, (E/Z)-3-(3,5-Dimethoxy-phenyl)-3-(1-methyl-1H-indol-6-yl)-acrylonitrile]: 117 to 119 °C.
The value for `COc1cc(OC)cc(C(=CC#N)c2ccc3c(c2)OCCN3C)c1` [compound 2, 3-(3,5-Dimethoxy-phenyl)-3-(4-methyl-3,4-dihydro-2H-benzo[1,4]oxazin-7-yl)-acrylonitrile] was 119 to 121 °C; that for `CCOc1cc(C(=CC#N)c2ccc3c(c2)OCCN3C)ccc1OC` (mixture of isomers) [compound 3, (E/Z) 3-(3-Ethoxy-4-methoxy-phenyl)-3-(4-methyl-3,4-dihydro-2H-benzo[1,4]oxazin-7-yl)-acrylonitrile] was 99 to 101 °C; that for `CCOc1cc(C(=CC#N)c2ccc3c(c2)CCO3)ccc1OC` (mixture of isomers) [compound 1, (E/Z) 3-(2,3-Dihydro-benzofuran-5-yl)-3-(3-ethoxy-4-methoxy-phenyl)-acrylonitrile] was 49 to 51 °C.
The same measure for `CCOc1cc(C(=CC#N)c2ccc3c(c2)nnn3C)ccc1OC` (mixture of isomers) [compound 4, (E/Z) 3-(3-Ethoxy-4-methoxy-phenyl)-3-(1-methyl-1H-benzotriazol-5-yl)-acrylonitrile]: 180 to 182 °C.
